Experimental data as given in the CheMixHub viscosity set.

Experiment: xn = mol fraction of the nth substance listed

COCCO + CC1COC(=O)O1
viscosity [mPa·s], 101.33 kPa
Details | 298.15 K | 308.15 K | 318.15 K
x1 = 0.0271 | 2.41 | – | –
x1 = 0.0632 | 2.298 | 1.913 | 1.612
x1 = 0.0927 | 2.24 | – | –
x1 = 0.1045 | 2.193 | 1.824 | 1.541
x1 = 0.1523 | 2.104 | 1.756 | 1.484
x1 = 0.1824 | 2.057 | – | –
x1 = 0.2117 | 2.004 | 1.679 | 1.423
x1 = 0.2527 | 1.95 | 1.634 | 1.381
x1 = 0.2995 | 1.917 | – | –
x1 = 0.305 | 1.89 | 1.581 | 1.339
x1 = 0.3489 | 1.843 | 1.537 | 1.306
x1 = 0.397 | 1.794 | 1.492 | 1.273
x1 = 0.4053 | 1.813 | – | –
x1 = 0.4225 | 1.787 | – | –
x1 = 0.4547 | 1.745 | 1.456 | 1.224
x1 = 0.4942 | 1.738 | – | –
x1 = 0.4979 | 1.717 | 1.43 | 1.214
x1 = 0.5467 | 1.7 | – | –
x1 = 0.5531 | 1.68 | – | 1.183
x1 = 0.5954 | 1.664 | 1.385 | 1.172
x1 = 0.5956 | 1.674 | – | –
x1 = 0.6388 | – | 1.361 | 1.147
x1 = 0.6429 | 1.652 | – | –
x1 = 0.6954 | 1.619 | 1.341 | 1.127
x1 = 0.7027 | 1.626 | – | –
x1 = 0.7088 | 1.626 | – | –
x1 = 0.7346 | 1.593 | 1.325 | 1.111
x1 = 0.7911 | 1.602 | – | –
x1 = 0.7959 | 1.574 | 1.31 | 1.098
x1 = 0.8414 | 1.569 | 1.297 | 1.083
x1 = 0.864 | 1.575 | – | –
x1 = 0.9025 | 1.545 | 1.276 | 1.076
x1 = 0.9325 | 1.552 | – | –
x1 = 0.9593 | 1.546 | 1.266 | 1.055
x2 = 0.0163 | 1.534 | – | –

CCCC(=O)O + CC#N
viscosity [mPa·s], 101 kPa
Details | x1 = 0.0598 | x1 = 0.1252 | x1 = 0.1971 | x1 = 0.2763 | x1 = 0.3641 | x1 = 0.4621 | x1 = 0.572 | x1 = 0.6961 | x1 = 0.8375
298.15 K | 0.3944 | 0.4377 | 0.5044 | 0.5968 | 0.717 | 0.8653 | 1.039 | 1.229 | 1.415
308.15 K | 0.3452 | 0.3849 | 0.4455 | 0.5285 | 0.6349 | 0.7632 | 0.9084 | 1.058 | 1.187
318.15 K | 0.3146 | 0.3681 | 0.4272 | 0.4922 | 0.5632 | 0.6398 | 0.7209 | 0.8039 | 0.8836

COCCO + CC#N
298 K, 101.33 kPa
Details | viscosity [mPa·s]
x1 = 0.097 | 0.391
x1 = 0.1987 | 0.455
x1 = 0.2949 | 0.529
x1 = 0.404 | 0.631
x1 = 0.4985 | 0.736
x1 = 0.5987 | 0.866
x1 = 0.6932 | 0.991
x1 = 0.7991 | 1.171
x1 = 0.9035 | 1.361

CCCC(C)O (stereo not drawn) + CC(=O)N(C)C
viscosity [mPa·s], 100 kPa
Details | 298.15 K | 313.15 K
x2 = 0.0565 | 2.917 | 1.821
x2 = 0.1029 | 2.592 | 1.693
x2 = 0.2137 | 2.057 | 1.432
x2 = 0.3057 | 1.757 | 1.276
x2 = 0.409 | 1.528 | 1.145
x2 = 0.5031 | 1.387 | 1.053
x2 = 0.6045 | 1.255 | 0.971
x2 = 0.7015 | 1.158 | 0.904
x2 = 0.7996 | 1.068 | 0.842
x2 = 0.9005 | 0.987 | 0.784
x2 = 0.9581 | 0.943 | –

CC[N+](CC)(CC)CC.[OH-] + CC(=O)N(C)C
viscosity [mPa·s], 101 kPa
Details | 298.15 K | 303.15 K | 308.15 K | 313.15 K
x1 = 0.0216 | 1.19 | 1.11 | 1.03 | 0.96
x1 = 0.0663 | 1.64 | 1.54 | 1.42 | 1.32
x1 = 0.1133 | 2.08 | 1.95 | 1.79 | 1.67
x1 = 0.1628 | 2.49 | 2.33 | 2.16 | 2.01
x1 = 0.215 | 2.83 | 2.66 | 2.49 | 2.33
x1 = 0.2422 | 2.99 | 2.81 | 2.64 | 2.47
x1 = 0.2988 | 3.28 | 3.09 | 2.89 | 2.72
x1 = 0.3899 | 3.63 | 3.43 | 3.23 | 3.04
x1 = 0.4894 | 3.89 | 3.69 | 3.47 | 3.27
x1 = 0.5986 | 4.08 | 3.87 | 3.63 | 3.44
x1 = 0.7188 | 4.24 | 4.04 | 3.77 | 3.59
x1 = 0.806 | 4.39 | 4.18 | 3.91 | 3.76
x1 = 0.8995 | 4.59 | 4.38 | 4.11 | 3.95

COCCO + CC(=O)N(C)C
viscosity [mPa·s], 101 kPa
Details | 298.15 K | 308.15 K | 318.15 K
x2 = 0.0301 | 1.535 | 1.254 | 1.048
x2 = 0.06 | 1.528 | 1.25 | 1.046
x2 = 0.0871 | 1.52 | 1.247 | 1.045
x2 = 0.125 | 1.507 | 1.239 | 1.041
x2 = 0.1767 | 1.488 | 1.228 | 1.034
x2 = 0.225 | 1.466 | 1.214 | 1.026
x2 = 0.2902 | 1.432 | 1.192 | 1.011
x2 = 0.364 | 1.39 | 1.164 | 0.991
x2 = 0.4602 | 1.329 | 1.122 | 0.96
x2 = 0.52 | 1.289 | 1.092 | 0.938
x2 = 0.5611 | 1.26 | 1.07 | 0.921
x2 = 0.62 | 1.216 | 1.038 | 0.897
x2 = 0.6654 | 1.181 | 1.011 | 0.876
x2 = 0.725 | 1.135 | 0.977 | 0.849
x2 = 0.7732 | 1.099 | 0.949 | 0.827
x2 = 0.825 | 1.059 | 0.919 | 0.803
x2 = 0.8847 | 1.014 | 0.885 | 0.775
x2 = 0.9501 | 0.965 | 0.847 | 0.746

CCCCBr + CC(C)(C)O
viscosity [mPa·s], 101.33 kPa
Details | x2 = 0.0988 | x2 = 0.197 | x2 = 0.3014 | x2 = 0.4101 | x2 = 0.5017 | x2 = 0.5982 | x2 = 0.7029 | x2 = 0.7982 | x2 = 0.8931
298.15 K | 0.597 | 0.612 | 0.643 | 0.692 | 0.798 | 0.926 | 1.148 | 1.509 | 2.232
303.15 K | 0.564 | 0.576 | 0.602 | 0.642 | 0.736 | 0.839 | 1.018 | 1.302 | 1.841
308.15 K | 0.534 | 0.54 | 0.563 | 0.598 | 0.679 | 0.763 | 0.909 | 1.134 | 1.543
313.15 K | 0.508 | 0.511 | 0.529 | 0.557 | 0.632 | 0.7 | 0.817 | 0.995 | 1.311
318.15 K | 0.494 | 0.482 | 0.497 | 0.521 | 0.581 | 0.638 | 0.737 | 0.882 | 1.127

COCCO + CC(C)(C)O
Details | viscosity [mPa·s]
303.15 K, 101.3 kPa, x1 = 0.1011 | 2.892
303.15 K, 101.3 kPa, x1 = 0.1977 | 2.538
303.15 K, 101.3 kPa, x1 = 0.2694 | 2.324
303.15 K, 101.3 kPa, x1 = 0.3774 | 2.043
303.15 K, 101.3 kPa, x1 = 0.4851 | 1.831
303.15 K, 101.3 kPa, x1 = 0.6774 | 1.579
303.15 K, 101.3 kPa, x1 = 0.745 | 1.523
303.15 K, 101.3 kPa, x1 = 0.849 | 1.456
303.15 K, 101.3 kPa, x1 = 0.9028 | 1.427
308.15 K, 101.33 kPa, x1 = 0.119 | 2.241
308.15 K, 101.33 kPa, x1 = 0.2504 | 1.929
308.15 K, 101.33 kPa, x1 = 0.3687 | 1.713
308.15 K, 101.33 kPa, x1 = 0.5096 | 1.527
308.15 K, 101.33 kPa, x1 = 0.6441 | 1.402
308.15 K, 101.33 kPa, x1 = 0.7218 | 1.35
308.15 K, 101.33 kPa, x1 = 0.8035 | 1.298
308.15 K, 101.33 kPa, x1 = 0.9026 | 1.242

CC(O)=S + CC(C)=O
298.1 K, 101 kPa
Details | viscosity [mPa·s]
x1 = 0.2 | 0.405
x1 = 0.4 | 0.479
x1 = 0.5 | 0.511
x1 = 0.6 | 0.551
x1 = 0.8 | 0.624

COCCO + CC(C)=O
viscosity [mPa·s], 101.33 kPa
Details | 293.15 K | 298.15 K | 303.15 K
x1 = 0.0508 | 0.373 | 0.356 | 0.342
x1 = 0.1006 | 0.439 | 0.416 | 0.397
x1 = 0.1509 | 0.507 | 0.477 | 0.453
x1 = 0.2015 | 0.563 | 0.527 | 0.5
x1 = 0.2496 | 0.613 | 0.572 | 0.541
x1 = 0.2998 | 0.652 | 0.607 | 0.574
x1 = 0.351 | 0.688 | 0.64 | 0.603
x1 = 0.3995 | 0.726 | 0.673 | 0.632
x1 = 0.4503 | 0.767 | 0.709 | 0.663
x1 = 0.5006 | 0.818 | 0.753 | 0.7
x1 = 0.5504 | 0.875 | 0.804 | 0.742
x1 = 0.6007 | 0.941 | 0.861 | 0.79
x1 = 0.6496 | 1.012 | 0.923 | 0.845
x1 = 0.6998 | 1.09 | 0.991 | 0.905
x1 = 0.7502 | 1.17 | 1.062 | 0.969
x1 = 0.8004 | 1.248 | 1.132 | 1.033
x1 = 0.8511 | 1.333 | 1.209 | 1.106
x1 = 0.8999 | 1.419 | 1.287 | 1.179
x1 = 0.9503 | 1.542 | 1.398 | 1.278
